Laboratory results: publication PMC12571071, “Preventing neuropathy and improving anticancer chemotherapy with a carbazole-based compound” (Science Advances, 2025)

Tests used:
HeLa cells [1] = experiment: HeLa cell viability (PrestoBlue) assay, 72 h; format: cell-based, human
Experimental: The human HeLa cell line was tested negative for mycoplasma contamination. HeLa cells were grown in RPMI 1640 medium supplemented with penicillin/streptomycin (100 μg/ml) and 10% FBS and maintained in a humidified incubator at 37°C and 5% CO2.
Cell viability was analyzed using the colorimetric PrestoBlue assay. Cells were seeded in 96-well microplates at a density of 7500 cells per well, allowed to adhere for 24 hours, and treated for 72 hours with either DMSO or drugs at indicated concentrations. PrestoBlue (10 μl) was then added to each well, followed by a 30-min incubation. Fluorescence was measured using a FLUOstar Optima microplate reader (excitation, 544 nm; emission, 580 nm; BMG Labtech).

PTX-induced neuropathy = experiment: Rat model of PTX-induced peripheral neuropathy (von Frey, serum NfL, IENFD); format: in vivo
Experimental: Control animals received an equivalent volume of the vehicle (cremophor EL:ethanol, 1:1) diluted 1:4 in 0.9% NaCl.
Carba1 was injected intraperitoneally six times (50 mg/kg) on days 0, 1, 2, 4, 7, and 9, resulting in a cumulative dose of 300 mg/kg (Fig. 2F). For each injection, Carba1 was injected intraperitoneally at 50 mg/kg on days 0, 1, 2, 4, 7, and 9, for a cumulative dose of 300 mg/kg, using a stock solution (150 mg/ml; cremophor EL:ethanol, 1:1) diluted to 50 mg/ml in 0.9% NaCl. Control animals for Carba1 received the same volume of the vehicle [cremophor EL:ethanol (1:1) diluted 1:3 in 0.9% NaCl]. […] To prevent cross-exposure through feces and urine, treatment groups were randomized by cage, with each cage housing three animals.
Tactile allodynia, a common sensory disorder reported in animal models of CIPN ([56]), was assessed using an electronic von Frey test (Bioseb) ([68]). Rats were placed in plastic compartments on a wire floor and allowed to habituate for 15 min. […] The maximum force (in grams) causing withdrawal was recorded automatically. The average of two measurements, not differing by more than 10 g, was used as the nociceptive threshold ([68]). Rats were habituated to the compartments 3 days before the first injection, and the experimenter was blinded to treatment groups.
Blood samples were collected on day 15 in vials with a clot activator, left at R.T. for up to 1 hour before centrifugation at 4100 rpm at 20°C for 10 min. Serum was then collected, aliquoted, and stored at −80°C until analysis. To reduce batch effects, serum samples were randomized on assay plates. NfL concentration was measured in the serum using commercial kits (Simple Plex Ella ProteinSimple, USA; Rat NfL Kit ProteinSimple) ([27]).
Skin samples from both hind paws were fixed in 4% PFA overnight at 4°C, followed by sucrose cryoprotection (10, 20, and 30%) at 4°C overnight. After embedding in tissue freezing medium, the samples were at −80°C. Sections (20 μm) were cut using a cryostat at −17°C, washed with PBS for 5 min, and dried. The sections were blocked in PBS/0.2% Triton X-100/1%BSA for 1 hour and then incubated overnight at R.T. with anti-PGP9.5 antibody (1:400). After washing with PBS, sections were incubated with goat anti-rabbit Alexa Fluor488 secondary antibody for 2 hours, and the nuclei were stained with DAPI. Imaging was performed by acquiring 0.5 μm Z-stacks and exposure times for DAPI and fluorescein isothiocyanate set to 600 ms. Quantification followed the method described by Lauria et al. ([69]).

HeLa cells [2] = experiment: 1H NMR metabolomic profiling of HeLa cells; format: cell-based, human; conditions: 12 μM, 2 hours
Experimental: HeLa cells (1 × 10^6) were seeded in Ø100-mm cell culture dishes and allowed to adhere for 48 hours. Cells were then treated with DMSO or 12 μM Carba1 for 2 hours at 37°C and 5% CO2. After treatment, the medium was removed, and cells were washed with PBS at R.T. before quenching with methanol at −20°C and scrapping ([70]). Dried extracts were obtained by evaporating the solvent under gentle N2 flow and stored at −80°C until analysis. For NMR, extracts were resuspended in 620 μl of 100% D2O phosphate buffer (pH 7.4), and 550 μl was transferred into 5-mm NMR tubes. Untargeted NMR analysis was performed at 27°C on a Bruker Avance IVDr spectrometer (600 MHz, ^1H resonance) with a conventional Broadband Inverse (BBI) probe. ^1H metabolic profiles were acquired using a NOESY experiment with water presaturation (Bruker pulse program noesygppr1d) and a spectral width of 11,904.792 Hz. Experimental parameters included a 10-ms mixing time, 2-s acquisition time, 3-s recycle delay, and 512 scans. The 90°s pulse length was calibrated at ~11.09 μs per sample after automatic shimming and tuning. NMR free induction decays were multiplied by an exponential function corresponding to a line broadening of 0.3 Hz before Fourier transform. […]

[3] = test system: HeLa cells xenografted in mice; experiment: HeLa tumor xenograft in nude mice; format: in vivo; conditions: PTX 8 mg/kg
Experimental: Five-week-old NMRI nude mice (Janvier Labs) were implanted with 10 × 10^6 HeLa cells (200 μl in PBS) on the right flank. On day 6, the mean tumor volume was 120 ± 4 mm^3. […] Behavior and signs of pain were monitored daily. Body weight and tumor volume were measured two to three times per week using electronic calipers, with tumor volume (in cubic millimeters) calculated as length (millimeters)/2 × width^2 (square millimeters). Tumor growth inhibition was analyzed using GraphPad Prism with one-way analysis of variance (ANOVA) and Dunn’s multiple comparisons test for treatment versus vehicle. Mice were euthanized on day 20, when the vehicle group reached ethical limits. Blood samples were collected by intracardiac puncture in EDTA-coated tubes for differential blood counts and hemograms, outsourced to IDEXX BioAnalytics. For biochemical analysis, blood was collected in heparin-lithium tubes, and plasma was isolated by centrifugation and frozen at −80°C. Plasma was analyzed using MS Scan II (Melet Schloesing) and VET16 reagent rotors to measure markers of renal and hepatic function, metabolism, and nutritional and muscular status. Differential counts, hemograms, and biochemical data were analyzed with GraphPad Prism using Kruskal-Wallis test and Dunn’s multiple comparisons test.

[4] = rat serum, day 15, outliers removed

Structure (SMILES): Cc1cc(-n2cccc2)c(C)c2c1[nH]c1ccc(Cl)cc12 [Compound 1]
- relief of FK866 cytotoxicity (HeLa cells [1]; HeLa cells, coadministration with FK866): counteracted the toxic effect of FK866 in a dose-dependent manner
- GI50 (HeLa cells [1]; Homo sapiens, HeLa, cell viability, compound alone, read-out: GI50): > 25 µM
- GI50 FK866 with carbazole/GI50 FK866 (HeLa cells [1]; ratio at the highest noncytotoxic dose of carbazole analog, readout of NAMPT activation): 2.6
- GI50 PTX/GI50 PTX with carbazole (HeLa cells [1]; ratio at the highest noncytotoxic dose of carbazole analog, synergy with PTX): 2.5
- IENFD, mean (PTX-induced neuropathy; rat hind paw biopsies, day 15): 19.54 number/mm
- IENFD, median (PTX-induced neuropathy; rat hind paw biopsies, day 15): 19.88 number/mm
- NfL, mean (PTX-induced neuropathy; [4]): 22.14 pg/mL
- NfL, median (PTX-induced neuropathy; [4]): 22.40 pg/mL
- effect on PTX-induced tactile allodynia (PTX-induced neuropathy; rat, Carba1 50 mg/kg i.p. x6 with PTX 5 mg/kg i.p. x4): prevents PTX-induced tactile allodynia
- effect on PTX-induced intraepidermal nerve fiber degeneration (PTX-induced neuropathy; rat, Carba1 cotreatment with PTX): prevented PTX-induced intraepidermal nerve fiber degeneration
- tactile allodynia (paw withdrawal threshold, electronic von Frey), agent alone (PTX-induced neuropathy; rat, i.p., PTX 5 mg/kg x4 or Carba1 50 mg/kg x6): not analgesic
- reduction of IENFD, agent alone (PTX-induced neuropathy; rat, vs controls): had no effect
- GTP levels (HeLa cells [2]): significant increase
- NAD+ abundance (HeLa cells [2]): significant decrease
- tumor size ([3]; i.v. every 2 days, Carba1 60 mg/kg alone or with PTX): no significant tumor size changes
- toxicity (blood counts, markers of renal or hepatic function) ([3]; i.v., Carba1 60 mg/kg, or combination): no detectable toxicity
